Experimental data: article PMC11912270, “Synthesis and SAR Studies of Acyl-Thiourea Platinum(II) Complexes Yield Analogs with Dual-Stage Antiplasmodium Activity” (ACS Medicinal Chemistry Letters, 2025)

How the values were obtained:
PfNF54 ABS parasites = test: SYBR Green I-based proliferative assay, PfNF54 ABS parasites; format: cell-based, Plasmodium falciparum; conditions: ABS, SYBR Green I, 96 h; mean ± S.E., N = 3 (no S.E.: N = 1)
Experimental: (§1) The parasites were incubated under drug […]
(§2) incubation, parasite survival was determined by adding equal volumes of parasite suspension (100 µL) and SYBR Green I lysis buffer (0.2% µL/mL of 10 000x SYBR Green I, 20 mM Tris-HCl, pH 7.5, 5 mM EDTA, 0.008% saponin (w/v) and 0.08% Triton x-100). This was incubated for 1 hour at room temperature in the dark. […]

[1] = Plasma protein binding by ultracentrifugation; format: in vitro ADME, human
Experimental: (§3) To determine the PK parameters, blood samples were collected from the tail vein of the mice into heparinized microcentrifugation tubes at distinct sampling times (0.17, 0.5, 1, 3, 5, 7, 9, 24, and 48 hours for intravenous dosing; 0.5, 1, 3, 5, 7, 9, 24 and 48 hours for oral dosing). All samples were stored at -80 °C until extraction.
(§4) For the bioanalysis, frozen whole blood was thawed at room temperature and 1-0 µL of each sample was extracted by protein precipitation (using 100 µL of acetonitrile containing 10 ng/ml of the internal standard, MMV394902). The sample was centrifuged. Supernatants of each sample were injected into the LC-MS/MS column for analysis. The analytical limit of quantitation (LOQ) was 2 ng/mL. The pharmacokinetic parameters were calculated using noncompartmental analysis using PK Solutions 2.0 (Summit Research Services, Montrose, CO, USA) and a curve stripping-based method.
1.10. […]
In preparation for the assay, the required membrane filters were precoated with hexadecane (5%) in hexane and were allowed to dry. […] The samples were analyzed using LCMS/MS (Agilent rapid resolution HPLC, AB SCIEX 4500 MS). The permeability (Papp) was calculated by using the normalized (analyte/internal standard) peak areas. Membrane integrity was calculated from the Papp of Lucifer yellow (acceptable values <50nm/s) using a Modulus microplate reader. […]

[2] = Single-point microsomal metabolic stability, human; format: in vitro ADME; conditions: human liver microsomes, 1 µM
Experimental: 1.8. Microsomal metabolic stability studies […]
rat IGS, Xenotech), and mouse (male mouse CD1, Xenotech) liver microsomes (0.4 mg/ml) for 30 min at 37 °C. Reactions were quenched by adding ice-cold acetonitrile containing […]
disappearance of the parent compound. Half-life, clearance, and hepatic excretion ratios were determined using standard equations.6,7 Propranolol. […]

ABS parasites = test: Dual point activity against ABS parasites; format: cell-based, Plasmodium falciparum; conditions: single biological repeat
Text: Table S2: Dual point activity of platinum(II) complexes against ABS parasites, early- and late-
stage gametocytes. Values are averaged from technical triplicates performed for a single

[3] = Glutathione binding UV-Vis titration; conditions: GSH binding
Experimental: The binding of glutathione (GSH) to the platinum(II) complexes was monitored by observing the decrease in the metal-to-ligand-charge transfer (MLCT) band via a UV-Vis spectrophotometer.8 For this, 1–10 µL aliquots of GSH (0.4 M) in a PBS and DMSO (0.01% DMSO, v/v) mixture was added to a cuvette containing the relevant metal complex (50 µM) in the same solvent mixture. After each addition, the solution was stirred and allowed to incubate at room temperature for 3–5 minutes before recording the absorption spectrum between the wavelength range of 250–700 nm. These titrations were performed in triplicate and the average binding constants (logK) were reported with the standard error of the mean (SEM). The logK values were calculated from the best-fit model (describing a 1:1 association) using Equation 1.

[4] = In vivo pharmacokinetics in female Balb/C mice; set-up: species or system mouse
Experimental: In this regard, three replicates of female Balb/C mice were dosed at either 3 mg/kg (intravenously, i.v.) or 10 mg/kg (orally, p.o.). Blood was sampled at specific time intervals over 48 h. The corresponding PK parameters were calculated using noncompartmental analysis (Table 2). […]
1.9. Determination of pharmacokinetic parameters […]
parameters. Compounds were administered either intravenously as a bolus solution […]
Mice were allowed to eat and access water freely.
as §3
as §4, with “method. […]” for “method.”
1.11. Plasma protein binding (PPB)
To determine the percentage of test compound bound to plasma, ultracentrifugation was used.
The test compound (5 µM of a 10 mM DMSO stock) was used to spike pooled human plasma.
An aliquot of the spiked solution was removed immediately and quenched with carbamazepine, […]

PfK1 ABS parasites = format: cell-based, Plasmodium falciparum
Experimental: as §1, §2

## Nc1cc[n+]2c(c1)-c1cc(N)cc[n+]1[Pt-2]21[O+]=C(c2ccccc2)N=C(N(CCO)CCO)[S]1.[Cl-] [C6]
PfNF54 ABS parasites
  IC50: 36.3 ± 0.6 nM
[1]; Fu = (100 – PPB)/100
  Fu: 0.01
[1]; human plasma, 5 µM
  PPB (% bound): 99% bound
[2]
  Microsomal metabolic stability (% remaining after 30 min) Human: 43 % remaining
ABS parasites; 1 µM
  ABS (% inhibition) 1 µM: 100.7 % inhibition
ABS parasites; 5 µM
  ABS (% inhibition) 5 µM: 100.2 % inhibition
[3]; N = 3, PBS
  Average logK ± SEM: 2.58 ± 0.19
[3]; replicate N = 1
  LogK N = 1: 2.80
[3]; replicate N = 2
  LogK N = 2: 2.21
[3]; replicate N = 3
  LogK N = 3: 2.74
[4]; 3 mg/kg i.v.
  CLs i.v.: 46.4 mL/min/kg
  T1/2 i.v.: 10.8 h
[4]; 10 mg/kg p.o.
  T1/2 p.o.: 12.0 h
[4]; 10 mg/kg p.o. vs 3 mg/kg i.v.
  Bioavailability: 3.8%
[4]; female Balb/C mice, 3 mg/kg i.v.
  Vss i.v.: 45.6 L/kg
[4]; i.v., unbound fraction
  Vssu: 4560 L/kg
[4]; p.o., unbound fraction
  CLu: > 1000 mL min^–1 kg^–1
[4]; unbound fraction, Clu = Cls/Fu, i.v.
  CLu i.v.: >1000 mL/min/kg
[4]; unbound fraction, Vssu = Vss/Fu, 3 mg/kg i.v.
  Vssu i.v.: 4560 L/kg
PfK1 ABS parasites; ABS, SYBR Green I, 96 h, mean ± S.E.
  IC50: 102 ± 13 nM
PfK1 ABS parasites; RI = PfK1 IC50/PfNF54 IC50
  RI (resistance index): 2.8
